Series [1] concerns amphetamine-induced hyperactivity in the rat. The series is described as follows: Amphetamine challenge: d-amphetamine induced hyperactivity in rats. The class given is in vivo. The settings on record: test substance s.c. 30 min before d-amphetamine sulphate 0.5 mg/kg, motility 2 hours, read-out: Amphetamine antagonism ED50 ± std. dev. The text has this:
D-amphetamine administration to rodents stimulates an increase in locomotor activity via mesolimbic dopamine receptors in the nucleus accumbens. While psychostimulant psychosis may not model all forms of schizophrenia, it may have applicability to paranoid schizophrenia and non-schizophrenic psychotic disorders (Krystal et al. pp. 214-224 in Neurobiology of Mental Illness ISBN 0-19-511265-2). It is believed that inhibition of the amphetamine-induced increase in locomotor activity is a reliable method for the evaluation of compounds with an antipsychotic potential (Ögren et al., European J. Pharmacol. 1984, 102, 459-464). In the following experiment, it was tested if the inhibition of spontaneous DA neurons in the mesolimbic circuit that was assessed above, could be translated into behavioral antipsychotic endpoint.
Subjects. Male Wistar rats (Taconic, Denmark) weighing 170-240 g are used. The animals were housed under a 12-hr light/dark cycle under controlled conditions for regular in-door temperature (21±2° C.) and humidity (55±5%) with food and tap water available ad libitum. Eight rats were used at each dose level and in the parallel control group receiving the vehicle to the test compound plus d-amphetamine and the group receiving vehicle injections only.

Series [2] concerns conditioned avoidance response in rats. Put plainly: Conditioned avoidance response in rats. The class given is in vivo, rat. The following applies: rats. From the text: In the conditioned avoidance response (CAR) model, rats are trained to respond to a stimulus within a fixed time by moving from one place to another in order to avoid a footshock. Antipsychotics selectively suppress the avoidance response within a certain dose-range without suppressing escape behavior elicited by the appearance of the footshock. The CAR model is considered to be a predictive and reliable animal model that is sensitive to compounds with an antipsychotic potential.
Subjects. Male Wistar rats (Taconic, Denmark) weighing 150 g at the beginning of the study are used. The rats are housed ii pairs and maintained on a 12 h light/dark cycle (lights on 06:00). The animals are fed once daily (approx. 6 pellets/rat) in order to keep the rats at 80% of their free-feeding weight. Water is available ad libitum. Temperature (21±1° C.) and relative humidity (55±5%) are automatically controlled.
Experimental procedure. Conditioned avoidance testing is conducted using four automated shuttle-boxes (ENV-010M, MED-Associates) each placed in a sound-attenuated chamber. Each box is divided into two compartments by a partition with an opening. The position of the animal and crossings from one compartment to the other are detected by two photocells placed on either side of the dividing wall. Upon presentation of the conditioned stimuli (CS), tone and light, the animals have 10 s to cross to the other compartment of the shuttle-box in order to turn the CS off (end the trial) and avoid the appearance of the unconditioned stimulus (UCS). If the rat remains in the same compartment for more than 10 s, the UCS is presented as 0.5 mA scrambled foot-shocks until escape is performed or 10 s in maximal duration. The following behavioural variables are evaluated: avoidance (response to CS within 10 s); escape (response to CS+UCS); escape failures (failure to respond); intertrial crosses and locomotor activity. The rats are habituated to the shuttle-box 3 min before each test session. During training each test session consists of 30 trials with intertrial intervals varying randomly between 20 s and 30 s. Training is carried until the rats display an avoidance of 80% or more, on 3 consecutive days. A test is preceded by a pre-test the day before giving rise to a baseline value for each animal, thus the animals serve as their own control. Seven to eight rats are used at each dose level. A parallel control group receiving the vehicle of the test compound is also included.
Administration of compound.
Statistical analyses. The effects of compounds on avoidance and escape failure behaviours were statistically evaluated by means of a two-way repeated measures ANOVA followed by post hoc comparisons (Student-Newman-Keuls Method) when appropriate. P-levels <0.05 were considered statistically significant.

The test system of series [3] is incidence of seizures in epileptic patients. The following applies: clinical trials (Bialer et al. 2002); cited from earlier work.
A short description of series [4]: in vivo. The following applies: Wistar, rat, sc.
The nature of series [5]: Inhibition of baseline motility in vehicle-pretreated, vehicle-challenged mice. The settings on record: NMRI, mouse, in vivo.

As to `CCOC(=O)Nc1ccc(NCc2ccc(F)cc2)cc1N`, in series [1], the ED50 (as a rule, the dose that gives a 50% effect, or the effect in half of the subjects) came to 2.3 mg/kg. The entries for the “% inhibition of avoidance. Relative to baseline.” value in series [2] (5 mg/kg s.c. 30 min before the test) and in series [2] (10 mg/kg s.c. 30 min before the test) were 1% and 59%, respectively. Besides, the “Escape failures (effect on motor performance)” value in series [2] (all tested doses, data not shown) was “None of the tested doses caused any incidences of escape failures”. In series [3], the “Incidence of seizures in epileptic patients” value is “shown effectiveness in reducing the incidence of seizures in epileptic patients”. Further, the ED50 at 2 h in series [4] is more than 8.1 mg/kg. In series [5], the ED50 at 30 min turned out to be 7.6 mg/kg.

The values are drawn from patent US20090118285A1, “USE OF KCNQ-OPENERS FOR TREATING OR REDUCING THE SYMPTOMS OF SCHIZOPHRENIA” (H. Lundbeck A/S, priority 2006, published 2009).
